From patent US7507739B2, “6-[(substituted)phenyl]triazolopyrimidines as anticancer agents” (Wyeth, priority 2003, dated 2009)
Marks after values point to notes of the source that are not given here.

What was measured:
[1] = test system: A549 Human Non-Small Cell Lung Carcinoma; test: Human tumor xenograft test, A549; type: in vivo, athymic mice; settings: days 1, 5, 9, 13, 17, 21, 25, 29
Protocol: (§1) The ability of compounds of this invention to inhibit tumor growth in animals is studied in the athymic mouse xenograft standard pharmacological test. Female nu/nu mice in an outbred albino background are obtained from Charles River Laboratories (Wilmington, Mass.). Animals are injected subcutaneously on the flank with the desired tumor cell suspension. Several days later, mice with tumors of approximately 150 mm^3 are selected from those injected (staged) and randomly distributed into groups of 5-10. The day of staging is called day 0. Compounds of the invention, usually formulated in saline (exceptions are noted in tables), are administered to animals by intravenous injection or oral gavage on various schedules starting on day 0 or 1, as noted in the tables. The control group in each experiment is dosed with vehicle on the same schedule. Tumor size is measured every 3-7 days with calipers in two orthogonal dimensions, and tumor volume is calculated from the formula volume=[(length×width^2)/2].
(§2) Tumor/Control (T/C) is obtained by dividing the mean tumor volume of the treated group by the mean tumor volume of the control group on each measurement day. A treatment dose is defined as active if it produced a statistically significant T/C of 0.50 or less. A p value≦0.05, determined by one-side Student's t-test, is required for statistical significance. A treatment dose is defined as toxic if more than 10% of the animals died from a compound-related toxicity.

HeLa cells = test: Cell cycle analysis with HeLa cells; type: cell-based, human; settings: 18 hr
[2] = test system: LoVo Human Colon Carcinoma; test: Human tumor xenograft test, LoVo; type: in vivo, athymic mice; settings: for T/C on day 0 / T/C on day 7 / T/C on day 14 / T/C on day 21 / T/C on day 28 / T/C on day 35: days 1, 7, 14
Protocol: as §1, §2

CN(C)CCCOc1cc(F)c(-c2c(Cl)nc3ncnn3c2NCC(F)(F)F)c(F)c1.Cl [Example 4a, 5-Chloro-6-{4-[3-(dimethylamino)propoxy]-2,6-difluorophenyl}-N-(2,2,2-trifluoroethyl)[1,2,4]triazolo[1,5-a]pyrimidin-7-amine Hydrogen chloride Salt]
T/C on day 0 ([1]; A549, 10 mg/kg IV): 0.98 | T/C on day 7 ([1]; A549, 10 mg/kg IV): 0.81 | T/C on day 14 ([1]; A549, 10 mg/kg IV): 0.74 | T/C on day 21 ([1]; A549, 10 mg/kg IV): 0.68 | T/C on day 27 ([1]; A549, 10 mg/kg IV): 0.80 | T/C on day 35 ([1]; A549, 10 mg/kg IV): 0.79 | T/C on day 0 ([1]; A549, 20 mg/kg IV): 0.99 | T/C on day 7 ([1]; A549, 20 mg/kg IV): 0.86 | T/C on day 14 ([1]; A549, 20 mg/kg IV): 0.80 | T/C on day 21 ([1]; A549, 20 mg/kg IV): 0.72 | T/C on day 27 ([1]; A549, 20 mg/kg IV): 0.78 | T/C on day 35 ([1]; A549, 20 mg/kg IV): 0.77 | T/C on day 0 ([1]; A549, 40 mg/kg IV): 0.97 | T/C on day 7 ([1]; A549, 40 mg/kg IV): 0.71 | T/C on day 14 ([1]; A549, 40 mg/kg IV): 0.53** | T/C on day 21 ([1]; A549, 40 mg/kg IV): 0.46** | T/C on day 27 ([1]; A549, 40 mg/kg IV): 0.52** | T/C on day 35 ([1]; A549, 40 mg/kg IV): 0.47** | Percent in Cell Cycle Phase >4N (HeLa cells; 20 nM): 2% | Percent in Cell Cycle Phase Apop (HeLa cells; 20 nM): 6% | Percent in Cell Cycle Phase G1 (HeLa cells; 20 nM): 60% | Percent in Cell Cycle Phase G2/M (HeLa cells; 20 nM): 15% | Percent in Cell Cycle Phase S (HeLa cells; 20 nM): 17% | Percent in Cell Cycle Phase >4N (HeLa cells; 30 nM): 1% | Percent in Cell Cycle Phase Apop (HeLa cells; 30 nM): 44% | Percent in Cell Cycle Phase G1 (HeLa cells; 30 nM): 29% | Percent in Cell Cycle Phase G2/M (HeLa cells; 30 nM): 15% | Percent in Cell Cycle Phase S (HeLa cells; 30 nM): 12% | Percent in Cell Cycle Phase >4N (HeLa cells; 40 nM): 2% | Percent in Cell Cycle Phase Apop (HeLa cells; 40 nM): 65% | Percent in Cell Cycle Phase G1 (HeLa cells; 40 nM): 8% | Percent in Cell Cycle Phase G2/M (HeLa cells; 40 nM): 17% | Percent in Cell Cycle Phase S (HeLa cells; 40 nM): 8% | Percent in Cell Cycle Phase >4N (HeLa cells; 50 nM): 2% | Percent in Cell Cycle Phase Apop (HeLa cells; 50 nM): 54% | Percent in Cell Cycle Phase G1 (HeLa cells; 50 nM): 6% | Percent in Cell Cycle Phase G2/M (HeLa cells; 50 nM): 29% | Percent in Cell Cycle Phase S (HeLa cells; 50 nM): 9% | Percent in Cell Cycle Phase >4N (HeLa cells; 60 nM): 2% | Percent in Cell Cycle Phase Apop (HeLa cells; 60 nM): 64% | Percent in Cell Cycle Phase G1 (HeLa cells; 60 nM): 13% | Percent in Cell Cycle Phase G2/M (HeLa cells; 60 nM): 15% | Percent in Cell Cycle Phase S (HeLa cells; 60 nM): 8% | Percent in Cell Cycle Phase >4N (HeLa cells; 70 nM): 4% | Percent in Cell Cycle Phase Apop (HeLa cells; 70 nM): 25% | Percent in Cell Cycle Phase G1 (HeLa cells; 70 nM): 3% | Percent in Cell Cycle Phase G2/M (HeLa cells; 70 nM): 60% | Percent in Cell Cycle Phase S (HeLa cells; 70 nM): 8% | Percent in Cell Cycle Phase >4N (HeLa cells; 80 nM): 5% | Percent in Cell Cycle Phase Apop (HeLa cells; 80 nM): 20% | Percent in Cell Cycle Phase G1 (HeLa cells; 80 nM): 5% | Percent in Cell Cycle Phase G2/M (HeLa cells; 80 nM): 63% | Percent in Cell Cycle Phase S (HeLa cells; 80 nM): 7% | Percent in Cell Cycle Phase >4N (HeLa cells; 90 nM): 5% | Percent in Cell Cycle Phase Apop (HeLa cells; 90 nM): 22% | Percent in Cell Cycle Phase G1 (HeLa cells; 90 nM): 5% | Percent in Cell Cycle Phase G2/M (HeLa cells; 90 nM): 59% | Percent in Cell Cycle Phase S (HeLa cells; 90 nM): 10% | Percent in Cell Cycle Phase >4N (HeLa cells; 100 nM): 5% | Percent in Cell Cycle Phase Apop (HeLa cells; 100 nM): 23% | Percent in Cell Cycle Phase G1 (HeLa cells; 100 nM): 7% | Percent in Cell Cycle Phase G2/M (HeLa cells; 100 nM): 57% | Percent in Cell Cycle Phase S (HeLa cells; 100 nM): 9% | Percent in Cell Cycle Phase >4N (HeLa cells; 110 nM): 5% | Percent in Cell Cycle Phase Apop (HeLa cells; 110 nM): 23% | Percent in Cell Cycle Phase G1 (HeLa cells; 110 nM): 6% | Percent in Cell Cycle Phase G2/M (HeLa cells; 110 nM): 56% | Percent in Cell Cycle Phase S (HeLa cells; 110 nM): 10% | Percent in Cell Cycle Phase >4N (HeLa cells; 120 nM): 4% | Percent in Cell Cycle Phase Apop (HeLa cells; 120 nM): 27% | Percent in Cell Cycle Phase G1 (HeLa cells; 120 nM): 7% | Percent in Cell Cycle Phase G2/M (HeLa cells; 120 nM): 53% | Percent in Cell Cycle Phase S (HeLa cells; 120 nM): 10%

C[C@H](Nc1c(-c2c(F)cc(OCCCO)cc2F)c(Cl)nc2ncnn12)C(F)(F)F [Example 20, 3-[4-(5-Chloro-7-{[(1S)-2,2,2-trifluoro-1-methylethyl]amino}[1,2,4]triazolo[1,5-a]pyrimidin-6-yl)-3,5-difluorophenoxy]propan-1-ol]
T/C on day 0 ([2]; 30 mg/kg PO): 1.00 | T/C on day 7 ([2]; 30 mg/kg PO): 0.37* | T/C on day 14 ([2]; 30 mg/kg PO): 0.35** | T/C on day 21 ([2]; 30 mg/kg PO): 0.35 | T/C on day 28 ([2]; 30 mg/kg PO): 0.28 | T/C on day 35 ([2]; 30 mg/kg PO): 0.35 | T/C on day 0 ([2]; 50 mg/kg PO): 1.00 | T/C on day 7 ([2]; 50 mg/kg PO): 0.27** | T/C on day 14 ([2]; 50 mg/kg PO): 0.46** | T/C on day 21 ([2]; 50 mg/kg PO): 0.33** | T/C on day 28 ([2]; 50 mg/kg PO): 0.29** | T/C on day 35 ([2]; 50 mg/kg PO): 0.31* | tumor growth inhibition (activity call) ([2]; orally on days 1, 7 and 14 at 50 and 30 mg/kg): active

CNCCCOc1cc(F)c(-c2c(Cl)nc3ncnn3c2C2CCCCCC2)c(F)c1.O=C(O)C(F)(F)F [Example 32, 3-[4-(5-Chloro-7-cycloheptyl[1,2,4]triazolo[1,5-a]pyrimidin-6-yl)-3,5-difluorophenoxy]-N-methylpropan-1-amine trifluoroacetic acid salt]
T/C on day 0 ([2]; 30 mg/kg PO): 1.00 | T/C on day 7 ([2]; 30 mg/kg PO): 0.55 | T/C on day 14 ([2]; 30 mg/kg PO): 0.68 | T/C on day 21 ([2]; 30 mg/kg PO): 0.35 | T/C on day 28 ([2]; 30 mg/kg PO): 0.43 | T/C on day 35 ([2]; 30 mg/kg PO): 0.53 | T/C on day 0 ([2]; 50 mg/kg PO): 1.00 | T/C on day 7 ([2]; 50 mg/kg PO): 0.41 | T/C on day 14 ([2]; 50 mg/kg PO): 0.44* | T/C on day 21 ([2]; 50 mg/kg PO): 0.27* | T/C on day 28 ([2]; 50 mg/kg PO): 0.31 | T/C on day 35 ([2]; 50 mg/kg PO): 0.26 | tumor growth inhibition (activity call) ([2]; orally on days 1, 7 and 14 at 50 mg/kg): active
